Measured values from US9757404B2, “Combination comprising an omega-3 fatty acid composition and an SGLT2 inhibitor” (AstraZeneca AB, priority 2014, dated 2017).

Columns and labels:
[1] = test system: diet-induced obese mouse model of fatty liver disease and NASH (DIO-NASH); assay: Mouse DIO-NASH model, 6 weeks treatment, hepatic pathology score (Example 3); assay type: in vivo, C57Bl/6J male mice; conditions: DIO-NASH mice; for NAFLD activity score, post-hoc test comparing the control group with the other groups (FIG. 1): Kruskal-Wallis p <0.01; for NAFLD activity score, post-hoc test comparing the control group with the other groups (FIG. 1) / fibrosis stage, Kruskal-Wallis test vs vehicle control (FIG. 2): p<0.05 regarded as significant; for fibrosis stage, Kruskal-Wallis test vs vehicle control (FIG. 2): p=0.4
Text: Effect of SGLT-2 Inhibitors and Epanova Alone or in Combination on Metabolic Parameters and Hepatic Pathology Score in a Mouse DIO-NASH Model
Determine the effect of 6 weeks treatment with the SGLT2 inhibitors dapagliflozin, ipragliflozin and canagliflozin and the Omega-3 compound Epanova alone or in combination on NAFLD Activity Score (NAS) including fibrosis stage (post versus pre-treatment) in a diet-induced obese mouse model of fatty liver disease and NASH (DIO-NASH).
At 5 weeks of age, C57Bl/6J male mice are purchased from JanVier, France. During the acclimatization and diet-induction period, the mice are group housed five per cage under a 12:12 light dark cycle (lights on from 0400-1600 h) at controlled temperature conditions (22±1° C.; 50±10% relative humidity). Throughout the study period, the mice have ad libitum access to NASH diet (DIO-NASH) (D09100301, Research Diet) (40% fat (18% trans-fat)), 40% carbohydrates (20% fructose) and 2% cholesterol). The animals are kept on the diet for 28 weeks before experimentation. In addition, a sub-set of animals are given normal chow (Altromin 1324, Brogaarden) to be included as a lean control group (LEAN-CHOW). During post-OP recovery and study period, animals will be single-housed. BW will be recorded once daily during the study period. 24 h food and water intake will be recorded once weekly during the study period.
During the DIO-NASH diet-induction period, BW will be monitored once monthly. After 25 weeks of diet-induction, a liver biopsy will be obtained for hepatic progression of fibrosis and steatosis evaluated by histochemical analysis, and subsequently NAFLD Activity Score including fibrosis stage and optional gene expression analysis (see below). At day −6, animals are stratified into treatment groups according to levels of fibrosis (% collagen) followed by randomization based on 1) liver fibrosis and 2) BW. In addition, liver steatosis (% lipid) will be analyzed. At day −5, animals are EchoMRI scanned for body composition analysis.
Dosing volume is 5-20 ml/kg (TBD). Route of administration is per oral (PO) dosing by gavage. Dosing frequency will be once daily (QD). Day 0 is the first day of dosing. Animals are dosed with compound(s) and vehicle between 2-4 PM. Animals are dosed for 42 days. Last dose will be administered the day before termination (study day 41).
A liver pre-biopsy and terminal liver tissue from the left lateral lobe will be collected for NAS and assessment of fibrosis stage by use of clinical criteria outlined by Kleiner and colleagues (Design and validation of a histological scoring system for nonalcoholic fatty liver disease, Kleiner et al, Hepatology 41; 2005). The NAS is the sum of steatosis, lobular inflammation and hepatocellular ballooning scores:
To assess hepatic steatosis, ballooning degeneration, fibrosis and inflammation sections are stained with H&E, Sirius Red, CK18 (ballooning) and Galectin-3 (macrophages), respectively) followed by analysis with Visiomorph software (Visiopharm, Copenhagen, Denmark). Biopsy assessment of hepatic steatosis, fibrosis or inflammation will be described as percentage of total area using a protocol designed for the specific purpose.
Results are presented as mean±SEM (standard error of the mean) unless otherwise stated. Statistical evaluation of the data is carried out using Student's unpaired t-test or two-way ANOVA for comparison of LEAN-CHOW control versus DIO-NASH Vehicle. For comparison of DIO-NASH groups, one-way and two-way ANOVA are being applied where appropriate. Post-hoc analysis (Dunnett/Bonferroni) in cases with statistical significance is performed (p<0.05 considered significant).

[2] = test system: VCU (Virginia Commonwealth University) NASH mouse model; assay: VCU NASH mouse model, 4 weeks treatment, liver histology (Example 4); assay type: in vivo; conditions: VCU NASH mice, 4 weeks daily gavage; dapagliflozin 1 mg/kg/d, Epanova 600 mg/kg/d
Description: A further pre-clinical mouse study was carried out according to the Experimental plan described below:
Model: VCU (Virginia Commonwealth University) NASH mouse model; inbred C57bI6J/×129SI/SvlmJ given high fat, cholesterol, fructose and glucose diet for 16 weeks before starting pharmacological treatment.
Treatment: drugs will be administered by daily gavage. Gavage volume will not exceed 3 mL/Kg. vehicles will be olive oil and water. Epanova and dapagliflozin will be administered by daily gavage in one syringe.
Run-in: 16 weeks in high fat, cholesterol, fructose and glucose diet one week with vehicle gavage.
T=0 weeks: the mice will be matched based on body weight. The mice will be divided into 4 groups of 12 animals. Vehicle gavage for one week before commencing active treatment for 4 weeks.

two mouse models of NASH = assay: Overall summary of the two pre-clinical NASH mouse studies; assay type: in vivo
Text: We have investigated the effect of Epanova, dapagliflozin and the combination of the two components in two pre-clinical studies and a human clinical study, described in the Examples herein.
In the NASH mouse studies included in the present application, no changes in body weight, glucose or insulin levels or liver fat were observed, however the NASH mouse models used were not diabetic, but were obese and insulin resistant.

diabetic population = conditions: cited from earlier work
human SGLT2 (hSGLT2) = human SGLT2 (hSGLT2) (Homo sapiens, UniProt P31639); conditions: stated property, no value given; cited from earlier work
[3] = 6 weeks QD PO, dapagliflozin 1 mg/kg, Epanova 600 mg/kg, vs vehicle

human SGLT2 (hSGLT2), sequence (P31639 whole entry): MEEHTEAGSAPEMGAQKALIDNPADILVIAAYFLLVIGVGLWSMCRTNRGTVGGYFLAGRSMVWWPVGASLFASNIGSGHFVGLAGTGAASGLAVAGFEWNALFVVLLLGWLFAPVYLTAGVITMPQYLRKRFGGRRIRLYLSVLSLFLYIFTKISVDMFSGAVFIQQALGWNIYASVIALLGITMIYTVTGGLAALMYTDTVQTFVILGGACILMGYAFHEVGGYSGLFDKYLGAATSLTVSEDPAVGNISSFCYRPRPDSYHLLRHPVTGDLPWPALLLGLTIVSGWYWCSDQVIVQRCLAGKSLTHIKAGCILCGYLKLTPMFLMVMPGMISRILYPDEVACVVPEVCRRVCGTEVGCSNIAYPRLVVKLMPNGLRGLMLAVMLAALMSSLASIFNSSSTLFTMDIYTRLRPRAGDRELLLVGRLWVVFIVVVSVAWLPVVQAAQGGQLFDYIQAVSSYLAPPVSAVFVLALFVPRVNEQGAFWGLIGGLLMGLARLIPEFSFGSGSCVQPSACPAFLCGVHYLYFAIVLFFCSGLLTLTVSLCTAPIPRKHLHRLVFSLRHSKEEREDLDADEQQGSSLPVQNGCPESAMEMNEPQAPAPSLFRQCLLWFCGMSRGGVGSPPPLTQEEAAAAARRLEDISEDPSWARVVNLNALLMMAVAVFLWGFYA

SMILES	NAFLD activity score, post-hoc test comparing the control group with the other groups (FIG. 1) [1]	fibrosis stage, Kruskal-Wallis test vs vehicle control (FIG. 2) [1]	NAFLD activity scores at the end of the study (primary effect variable) [1, 3]	fibrosis stage at the end of the study (primary effect variable) [1, 3]	fibrosis, comparing baseline and end-of study biopsies ([1]; 6 weeks QD PO, post versus pre-treatment)	overall effect on histology (NAFLD Activity Score, fibrosis stage) [2]	effect of treatment on NASH (two mouse models of NASH)	liver fat content (diabetic population; diabetic population / diabetic patients)	body fat content (diabetic population; published studies (Kabir et al; Bolinder et al))	selectivity for SGLT2 relative to SGLT1 (human SGLT2 (hSGLT2))
Cc1ccc([C@@H]2O[C@H](CO)[C@@H](O)[C@H](O)[C@H]2O)cc1Cc1ccc(-c2ccc(F)cc2)s1 [Canagliflozin, canagliflozin]	not significant	non-significant	–	–	–	–	–	–	–	–
CCOc1ccc(Cc2cc([C@@H]3O[C@H](CO)[C@@H](O)[C@H](O)[C@H]3O)ccc2Cl)cc1 [Dapagliflozin, dapagliflozin]	not significant	non-significant	No effects	No effects	reduced fibrosis	no effect	did not show any effect	tend to reduce liver fat content	reduce body fat content	High selectivity for SGLT2
OC[C@H]1O[C@@H](c2ccc(F)c(Cc3cc4ccccc4s3)c2)[C@H](O)[C@@H](O)[C@@H]1O [Ipragliflozin, ipragliflozin]	not significant	non-significant	–	–	–	–	–	–	–	–
